# Experimental data taken from patent US5405857A, “3-substituted 1,2,3,4,-oxatriazole-5-imine compounds, a process for the preparation thereof and a pharmaceutical preparation containing said compounds” (A/S GEA Farmaceutisk Fabrik, priority 1991, dated 1995).
# Where a name gives a salt, the structure may show the parent alone. Read-outs that look alike come from different tables or passages of the source.
# Key:
# blood platelets = assay: Inhibition of blood platelet aggregation (aggregometer, ADP); type: cell-based, human (healthy testees); settings: for IC50: Platelet, 0.05 h, read-out: IC50 (Inhibition of blood platelet aggregation)
# Description: Compounds according to the invention were tested for their inhibition of clumping together (aggregation) of blood platelets (thrombocytes), which is the first phase of the formation of blood clots (thrombi). Such an inhibition may prevent the formation of blood clots and inhibit the development of new thrombi after a diagnosed thrombus.
# Citrate stabilized ( 0.38% of sodium citrate, final concentration) venous blood from healthy testees is used, who have not used medicine for at least 8 days. Slight centrifugation (160×g for 10 minutes) results in PRP (blood plasma rich in platelets) which is pipetted. PPP (blood plasma poor in platelets) is obtained by an intense centrifugation (3000×g for 10 minutes) of the remaining blood. The light transmission is measured by the aggregometer (CHRONOLOG). PRP allows nearly no light transmitaaion, while PPP allows complete transmission of light. The PRP is placed in the aggregometer at 37° C. while being stirred by a magnet. Addition of a pro-aggregating substance causes the PRP to aggregate gradually and an increasing light transmission takes place at the same time. At complete aggregation a light transmission corresponding to PPP is obtained. Adnosine diphosphate (ADP) is used as pro-aggregating substance, said substance representing a basic biochemical mechanism for aggregation of blood platelets. The test substances are incubated for 3 minutes in PRP placed in the aggregometer at 37° C. during magnetic stirring. A predetermined positively aggregating dosage of adenosine diphosphate (ADP) (2 to 4 μM) is then added. […] A so-called IC50 -value (that is the concentration inhibiting the aggregation by 50% relative to the control aggregation) is calculated for each test substance by linear regression analysis (log concentration μM as constant ad abscissa and % inhibition as variable ad ordinate). The following known reference substances have been used: nitroglycerine (GTN), sodium nitroprusside (NNP) and SIN-1 (the active metabolite of molsidomine).
# male rats = settings: rat, in vivo, po, 20 mg/kg
# Description: Two tests were carried out on male rats, namely a determination of the "maximum tolerable dose" (MTD) and a test using multiple peroral doses. In addition, a LD50 test was carried out intravenously on mice.
# At this test the substances were administered perorally in a dose of 20 mg per kg. as solutions or suspensions once a day for 5 days to groups of 5 animals. Clinical observations were made every day and the above hematological parameters were measured on the third day of the test.
# pre-contracted trachea = assay: Relaxation of pre-contracted isolated trachea; set-up: species or system guinea pig; settings: Cavia porcellus; carbamylcholine 0.3 μM, Krebs buffer, 37° C.
# Description: Compounds according to the invention were tested for their ability to relax a pre-contracted trachea. A contraction of the respiratory passages in combination with a swelling of the mucuos membrane therein presents a vital factor at asthmatic conditions. Relaxation or dilation of the contracted respiratory passages will improve the asthmatic condition.
# An isolated trachea from a guinea pig is used. After preparation of a strip which has maintained the circular musculature, the organ is divided into two parts of equal size. The two tracheal strips are suspended in their respective organ bath and connected to a transducer recording the contraction and relaxation of the organ by means of a recorder. The two tracheal strips are continuously bathed in a Krebs buffer at 37° C., constantly bubbled with carbogen (95% O2 and 5% CO2). After an equilibration time of about 3 hours the organs are tested for their sensitivity (contractility) to carbamylcholin a bolus being added directly to the bath (0.3 μM). If the contraction is satisfactory, the organs are transferred to the Krebs buffer containing the same concentration of carbamylcholine. The organs are now constantly exposed to the carbamylcholine and slowly develop a permanent contraction ("asthma"). The test substances are in bolus form added directly to the organ bath. After maximum effect (relaxation) the substances are removed by washing out and the tracheal strip reverts to its permanent contraction state. […] An EC50 -value (that is the concentration relaxing the organ by 50% relative to the maximum relaxation) is calculated for each test substance by means of a linear regression analysis (log concentration (μM) as a constant ad abscissa and % relaxation as variable ad ordinate). Sodium nitroprusside (NNP) and SIN-1 are used as reference substances.
# [1] = target: T1, soluble guanylate cyclase (Homo sapiens, UniProt Q02153); assay: Stimulation of guanylate cyclase from blood platelets (RIA); type: biochemical; settings: 37° C.
# T1 construct: The guanylate cyclase activity in the supernatant after incubation with and without the test substance; endogenous in cells; host or cells: human blood platelets, supernatant of homogenate
# T1 sequence (Q02153 1-619): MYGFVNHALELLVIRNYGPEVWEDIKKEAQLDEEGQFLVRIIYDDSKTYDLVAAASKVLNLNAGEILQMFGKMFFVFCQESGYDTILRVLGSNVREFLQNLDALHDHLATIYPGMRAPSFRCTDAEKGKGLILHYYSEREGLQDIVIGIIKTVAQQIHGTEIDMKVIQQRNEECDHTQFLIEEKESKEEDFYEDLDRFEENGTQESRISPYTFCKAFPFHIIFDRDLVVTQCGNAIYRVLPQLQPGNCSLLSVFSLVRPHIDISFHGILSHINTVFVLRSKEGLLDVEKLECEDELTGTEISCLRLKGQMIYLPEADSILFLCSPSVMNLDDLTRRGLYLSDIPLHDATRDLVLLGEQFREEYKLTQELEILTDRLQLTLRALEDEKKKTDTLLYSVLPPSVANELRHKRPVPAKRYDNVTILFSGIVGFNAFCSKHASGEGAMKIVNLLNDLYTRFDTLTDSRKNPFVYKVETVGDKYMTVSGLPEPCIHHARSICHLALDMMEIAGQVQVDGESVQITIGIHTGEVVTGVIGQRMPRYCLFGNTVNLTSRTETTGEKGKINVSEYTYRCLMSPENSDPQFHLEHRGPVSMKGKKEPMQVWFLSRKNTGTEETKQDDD
# T1 sequence (Q02108 1-690 partner): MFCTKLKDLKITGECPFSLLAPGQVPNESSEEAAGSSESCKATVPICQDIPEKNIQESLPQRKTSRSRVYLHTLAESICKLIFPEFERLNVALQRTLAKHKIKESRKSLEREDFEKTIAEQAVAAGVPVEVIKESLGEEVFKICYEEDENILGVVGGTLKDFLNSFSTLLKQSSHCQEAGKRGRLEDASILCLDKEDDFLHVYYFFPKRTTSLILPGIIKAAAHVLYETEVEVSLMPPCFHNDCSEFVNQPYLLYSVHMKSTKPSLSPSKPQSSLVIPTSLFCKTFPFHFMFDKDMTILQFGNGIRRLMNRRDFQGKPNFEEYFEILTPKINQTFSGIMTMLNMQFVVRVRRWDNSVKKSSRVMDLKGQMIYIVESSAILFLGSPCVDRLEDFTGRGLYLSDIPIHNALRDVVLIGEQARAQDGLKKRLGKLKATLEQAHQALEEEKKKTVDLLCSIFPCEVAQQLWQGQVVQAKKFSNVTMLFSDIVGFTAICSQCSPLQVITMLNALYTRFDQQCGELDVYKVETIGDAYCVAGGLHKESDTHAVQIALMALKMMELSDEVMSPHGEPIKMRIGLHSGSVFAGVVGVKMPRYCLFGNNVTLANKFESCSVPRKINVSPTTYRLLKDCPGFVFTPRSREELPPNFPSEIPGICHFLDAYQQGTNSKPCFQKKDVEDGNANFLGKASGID
# PAI-1 = assay: Inhibition of plasminogen activator inhibitor (PAI-1) from blood platelets (fibrinolytic activity); type: cell-based, human; settings: 50 μM, 60 minutes; for % Inhibition of PAI-1 activity: compared to control; for PAI-1 activity: human PRP, control 3.24
# Description: Compounds according to the invention were tested for their inhibition of plasminogen activator inhibitor (PAI). An established thrombus comprises aggregated platelets cohered by fibrin. The organism has a fibrinolyric system for maintaining normal physiological conditions. Endogenous plasminogen is activated to plasmin (fibrinolysin, that is a proteolytic enzyme decomposing fibrin) by means of a tissue plasminogen activator (t-PA). The platelets include the enzyme PAI-1 inhibiting the activation of plasminogen to plasmin, and thus also the decomposition of fibrin.
# A general stimulation of the fibrinolytic system can cause serious hemostatic side effects (haemorrhages). A specific inhibition of PAI-1 induces an increased fibrinolysis in areas with many platelets, which is exactly the case in thrombi. As a result a thrombolytic effect is obtained.
# Human PRP prepared by slight centrifugation as previously mentioned is used, but at a low temperature (4° C.). By incubation of PRP (1 ml in a plastic tube) during a slight shaking at 37° C. the PAI-1 activity is liberated, said PAI-1 activity being measured spectrophotometrically by means of a two-step procedure using commercial kits (Spectrolyse™/fibrin kit from BIOPOOL, Sweden).
# The PAI-1 activity of the control PRP and PRP incubated with each of 6 compounds according to the invention and the reference substance sodium niroprusside (NNP) (50 μM of each for 60 minutes) appear from Table 6.
# [2] = tested on: polymorph nuclear leukocytes (PMNs), c-GMP; assay: Stimulation of c-GMP content in PMNs; type: cell-based, human; settings: 37° C., 10 minutes
# Description: Compounds according to the invention were tested for their ability to increase the content of cyclic guanosine monophosphate (c-GMP), to inhibit the synthesis of the leukotriene B4 (LTB4), and to inhibit the chemotactical movement of polymorph nuclear leukocytes (PMN). The polymorph nuclear leukocytes play a vital part in the cellular part of the inflammation process. At diseases, such as asthma, the mucuos membrane of the respiratory passages is swollen as a result of an inflammation with a significant infiltration of polymorph nuclear leukocytes (PMN's) in particular. Particularly effective substances for the treatment of asthma are such which in addition to relaxing the musculature in the respiratory passages also have an anti-inflammatory effect on the cellular phase of the inflammatory process, that is inhibiting the leukocyte function.
# Isolated human PMNs are incubated at 37° C. for 10 minutes, whereafter the content of cyclic guanosine monophosphate (c-GMP) is measured. Further, the synthesis of the LTB4 is determined after stimulation with Ca-ionophore (A23187) and the chemotaxis (controlled movement) towards FMLP (a substance attracting the polymorph nuclear leukocytes, PMNs) is determined.
# Three compounds according to the invention and the reference substance SIN-1 were tested for their ability to stimulate the content of cyclic guanosine monophosphate (c-GMP).
# [3] = human PRP, ADP 2 to 4 μM, 3 min incubation, 37° C.
smiles,measurement,setting,value
O=C([N-]c1n[n+](-c2cccc(C(F)(F)F)c2)no1)c1ccncc1 [Example 50],IC50,blood platelets; [3],90 nM
same,Clinical observations,male rats,N.R.
same,Hematological parameters,male rats,N.R.
same,Side effects (in words),male rats,no side effects
COc1ccc(C(=O)[N-]c2n[n+](-c3cccc(Cl)c3C)no2)cc1 [Example 53],EC50,pre-contracted trachea,700 nM
"O=[N+]([O-])OCC(CO[N+](=O)[O-])O[N+](=O)[O-] [GTN, nitroglycerine, reference compound]",Inhibition of blood platelet aggregation (in words),"blood platelets; ADP, PRP",inactive
same,IC50,blood platelets; [3],100000 nM
"[NH-]c1n[n+](-c2cccc(C(F)(F)F)c2)no1 [Example 3, 3-(3-trifluoromethylphenyl)-1,2,3,4-oxatriazole-5-imine hydrochloride]",Guanylate cyclase activity,[1]; 0.01 μM,2499 pmole c-GMP/mg prot. × 15 minutes
same,Guanylate cyclase activity,[1]; 10 μm (so in the source),47529 pmole c-GMP/mg prot. × 15 minutes
[NH-]c1n[n+](-c2ccccc2C(F)(F)F)no1 [Example 2],Guanylate cyclase activity,[1]; 0.01 μM,411 pmole c-GMP/mg prot. × 15 minutes
same,Guanylate cyclase activity,[1]; 10 μm (so in the source),37920 pmole c-GMP/mg prot. × 15 minutes
N#Cc1ccc(-[n+]2noc([NH-])n2)cc1 [Example 8],% Inhibition of PAI-1 activity,PAI-1,44%
same,PAI-1 activity,PAI-1,1.83 U/10^8 platelets
same,Guanylate cyclase activity,[1]; 0.01 μM,897 pmole c-GMP/mg prot. × 15 minutes
same,Guanylate cyclase activity,[1]; 10 μm (so in the source),64192 pmole c-GMP/mg prot. × 15 minutes
"[NH-]c1n[n+](-c2cccc(Cl)c2Cl)no1 [Example 21, 3-(2-chloro-3-chlorophenyl)-1,2,3,4-oxatriazole-5-imine]",Clinical observations,male rats,N.R.
same,Hematological parameters,male rats,N.R.
same,Side effects (in words),male rats,no side effects
Cc1c(Cl)cccc1-[n+]1noc([N-]C2CCCCC2)n1 [Example 63],Guanylate cyclase activity,[1]; 0.01 μM,1761 pmole c-GMP/mg prot. × 15 minutes
same,Guanylate cyclase activity,[1]; 10 μm (so in the source),72730 pmole c-GMP/mg prot. × 15 minutes
N#Cc1cccc(-[n+]2noc([NH-])n2)c1 [Example 7],IC50,blood platelets; [3],100 nM
[NH-]c1n[n+](-c2ccc(Cl)cc2F)no1 [Example 26],Clinical observations,male rats,N.R.
same,Hematological parameters,male rats,N.R.
same,Side effects (in words),male rats,no side effects
O=C([N-]c1n[n+](-c2ccc(Cl)cc2Cl)no1)c1cccnc1 [Example 43],Clinical observations,male rats,N.R.
same,Hematological parameters,male rats,N.R.
same,Side effects (in words),male rats,no side effects
[NH-]c1n[n+](-c2ccc(Cl)c(C(F)(F)F)c2)no1 [Example 18],IC50,blood platelets; Homo sapiens,540 nM
same,% Inhibition of PAI-1 activity,PAI-1,40%
same,PAI-1 activity,PAI-1,1.93 U/10^8 platelets
[NH-]c1n[n+](-c2c(Cl)cccc2Cl)no1 [Example 23],Guanylate cyclase activity,[1]; 0.01 μM,383 pmole c-GMP/mg prot. × 15 minutes
same,Guanylate cyclase activity,[1]; 10 μm (so in the source),76915 pmole c-GMP/mg prot. × 15 minutes
O=C([N-]c1n[n+](-c2cccc(C(F)(F)F)c2)no1)c1cccnc1 [Example 34],IC50,blood platelets; [3],190 nM
[NH-]c1n[n+](-c2ccc(Cl)c(Cl)c2)no1 [Example 24],% Inhibition of PAI-1 activity,PAI-1,34%
same,PAI-1 activity,PAI-1,2.14 U/10^8 platelets
same,Guanylate cyclase activity,[1]; 0.01 μM,2374 pmole c-GMP/mg prot. × 15 minutes
same,Guanylate cyclase activity,[1]; 10 μm (so in the source),59716 pmole c-GMP/mg prot. × 15 minutes
same,c-GMP in PMNs,[2]; 1 μM,391 fmole/10^6 cells
same,c-GMP in PMNs,[2]; 10 μM,965 fmole/10^6 cells
same,c-GMP in PMNs,[2]; 100 μM,1078 fmole/10^6 cells
